The results in this text go back to ChEMBL document CHEMBL2424558, “Synthesis and biological evaluation of novel quinazoline derivatives obtained by Suzuki CC coupling” (2013).

≈ marks a conversion by molar mass, not a printed value.

Holding throughout (type): functional
The test system of test [1] is Mycobacterium tuberculosis. The experiment in a line: Antimycobacterial activity against Mycobacterium tuberculosis H37Rv. Conditions: for MIC: Mycobacterium tuberculosis, H37Rv.
A further test has as its system Bacillus cereus. Description: Antibacterial activity against Bacillus cereus MTCC 430.
For the next test, the system named is Klebsiella pneumoniae. Description: Antibacterial activity against Klebsiella pneumoniae MTCC 109.
The subject of another test is Candida albicans. Description: Antifungal activity against Candida albicans MTCC 183. Conditions: for MIC: Candida albicans, MTCC 183.
In the next test the test system is Escherichia coli. The experiment in a line: Antibacterial activity against Escherichia coli MTCC 739.
The next test relates to Aspergillus niger. The experiment in a line: Antifungal activity against Aspergillus niger MTCC 282. The settings on record: for MIC: Aspergillus niger, MTCC 282.
In another test the test system is Staphylococcus aureus. The experiment in a line: Antibacterial activity against Staphylococcus aureus MTCC 96.
The test system of a further test is Pseudomonas aeruginosa. The experiment in a line: Antibacterial activity against Pseudomonas aeruginosa MTCC 741.
The mark [2] stands for this setting: Klebsiella pneumoniae, MTCC 109.
[3] abbreviates: Pseudomonas aeruginosa, MTCC 741.

As usually defined, the MIC is the least concentration at which growth counts as inhibited. For the compound `Cc1cccc(Oc2nc(-c3ccc(NC(=O)Nc4ccccc4)cc3)nc3ccccc23)c1`, the “inhibition (INH)” value in test [1] is 95%. Moreover, the MIC was determined as 250 µg/mL (≈ 560 µM) in test [1]; 250 µg/mL (≈ 560 µM) in the test on Bacillus cereus (Bacillus cereus, MTCC 430); 100 µg/mL (≈ 224 µM) against Klebsiella pneumoniae (setting [2]); 250 µg/mL (≈ 560 µM) in the test on Candida albicans; 100 µg/mL (≈ 224 µM) against Escherichia coli (Escherichia coli, MTCC 739); 200 µg/mL (≈ 448 µM) against Aspergillus niger. Also, the MIC in the test on Staphylococcus aureus (Staphylococcus aureus, MTCC 96) is 200 µg/mL (≈ 448 µM); in the test on Pseudomonas aeruginosa (setting [3]), 62.5 µg/mL (≈ 140 µM). Further, the “inhibition zone (IZ)” value was 20 mm with Bacillus cereus; 19 mm in the test with Klebsiella pneumoniae; 23 mm with Candida albicans; 23 mm in the test with Escherichia coli; 22 mm in the test with Aspergillus niger; 22 mm with Staphylococcus aureus. In the test on Pseudomonas aeruginosa, the “inhibition zone (IZ)” value is recorded as 21 mm.

As for `CC1(C)S[C@@H]2[C@H](NC(=O)[C@H](N)c3ccccc3)C(=O)N2[C@H]1C(=O)O` [AMPICILLIN], the “inhibition zone (IZ)” value amounted to 28 mm in the test on Bacillus cereus; 33 mm in the test with Klebsiella pneumoniae; 31 mm with Escherichia coli; 30 mm in the test on Staphylococcus aureus; 28 mm in the test on Pseudomonas aeruginosa. Also, the MIC in the test with Bacillus cereus (Bacillus cereus, MTCC 430) was 12.5 µg/mL (≈ 35.8 µM); against Klebsiella pneumoniae (setting [2]), 25 µg/mL (≈ 71.5 µM); in the test on Escherichia coli (Escherichia coli, MTCC 739) it was 6.25 µg/mL (≈ 17.9 µM); in the test on Staphylococcus aureus (Staphylococcus aureus, MTCC 96), 12.5 µg/mL (≈ 35.8 µM); against Pseudomonas aeruginosa (setting [3]), 25 µg/mL (≈ 71.5 µM).

In the case of `Cc1cccc(Oc2nc(-c3ccc(NC(=S)Nc4ccc(F)cc4)cc3)nc3ccccc23)c1`, the “inhibition (INH)” value in test [1] was 96%. The MIC in test [1] was determined as 50 µg/mL (≈ 104 µM); in the test on Bacillus cereus (Bacillus cereus, MTCC 430), 200 µg/mL (≈ 416 µM); in the test on Klebsiella pneumoniae (setting [2]), 100 µg/mL (≈ 208 µM); with Candida albicans, 6.25 µg/mL (≈ 13 µM); against Escherichia coli (Escherichia coli, MTCC 739), 25 µg/mL (≈ 52 µM); in the test on Aspergillus niger it was 50 µg/mL (≈ 104 µM). Further, the MIC with Staphylococcus aureus (Staphylococcus aureus, MTCC 96) was determined as 25 µg/mL (≈ 52 µM); against Pseudomonas aeruginosa (setting [3]), 50 µg/mL (≈ 104 µM). Besides, the “inhibition zone (IZ)” value in the test with Bacillus cereus is recorded as 27 mm; in the test with Klebsiella pneumoniae, 24 mm; with Candida albicans, 25 mm; with Escherichia coli, 27 mm; in the test on Aspergillus niger, 22 mm; in the test on Staphylococcus aureus, 24 mm. Besides, in the test on Pseudomonas aeruginosa, the “inhibition zone (IZ)” value came out at 25 mm.

In the case of `NNC(=O)c1ccncc1` [ISONIAZID], in test [1], the MIC came to 0.2 µg/mL (≈ 1.46 µM).

Take `CCOc1ccc(NC(=S)Nc2ccc(-c3nc(Oc4cccc(C)c4)c4ccccc4n3)cc2)cc1`: the “inhibition (INH)” value in test [1] is 95%. Also, the MIC in test [1] was found to be 200 µg/mL (≈ 395 µM); with Bacillus cereus (Bacillus cereus, MTCC 430), 100 µg/mL (≈ 197 µM); in the test on Klebsiella pneumoniae (setting [2]), 25 µg/mL (≈ 49.3 µM); in the test on Candida albicans, 50 µg/mL (≈ 98.7 µM); in the test on Escherichia coli (Escherichia coli, MTCC 739), 62.5 µg/mL (≈ 123 µM); against Aspergillus niger, 25 µg/mL (≈ 49.3 µM). Further, the minimal inhibitory concentration (MIC) in the test on Staphylococcus aureus (Staphylococcus aureus, MTCC 96) worked out at 12.5 µg/mL (≈ 24.7 µM); with Pseudomonas aeruginosa (setting [3]) it was 12.5 µg/mL (≈ 24.7 µM). Moreover, the “inhibition zone (IZ)” value with Bacillus cereus was determined as 19 mm; with Klebsiella pneumoniae it was 23 mm; in the test with Candida albicans, 22 mm; in the test with Escherichia coli it was 24 mm; with Aspergillus niger it was 26 mm; in the test with Staphylococcus aureus, 22 mm. The “inhibition zone (IZ)” value in the test on Pseudomonas aeruginosa amounted to 26 mm.

Turning to `OC(Cn1cncn1)(Cn1cncn1)c1ccc(F)cc1F` [FLUCONAZOLE], in the test on Candida albicans, the “inhibition zone (IZ)” value came out at 31 mm and the MIC is 12.5 µg/mL (≈ 40.8 µM). Also, in the test with Aspergillus niger, the “inhibition zone (IZ)” value is listed as 30 mm and the minimal inhibitory concentration (MIC) is 6.25 µg/mL (≈ 20.4 µM).

For the compound `Cc1cccc(Oc2nc(-c3ccc(NC(=O)Nc4ccc(Cl)cc4)cc3)nc3ccccc23)c1`, the “inhibition (INH)” value in test [1] came to 98%. For the same compound, the MIC in test [1] worked out at 100 µg/mL (≈ 208 µM); against Bacillus cereus (Bacillus cereus, MTCC 430), 100 µg/mL (≈ 208 µM); against Klebsiella pneumoniae (setting [2]), 62.5 µg/mL (≈ 130 µM); in the test on Candida albicans it was 100 µg/mL (≈ 208 µM); against Escherichia coli (Escherichia coli, MTCC 739), 62.5 µg/mL (≈ 130 µM); against Aspergillus niger it was 200 µg/mL (≈ 416 µM). Further, the MIC against Staphylococcus aureus (Staphylococcus aureus, MTCC 96) was 50 µg/mL (≈ 104 µM); in the test on Pseudomonas aeruginosa (setting [3]) it was 50 µg/mL (≈ 104 µM). The “inhibition zone (IZ)” value is given as 24 mm in the test on Bacillus cereus; 23 mm in the test with Klebsiella pneumoniae; 21 mm with Candida albicans; 27 mm with Escherichia coli; 26 mm in the test with Aspergillus niger; 25 mm in the test with Staphylococcus aureus. Further, the “inhibition zone (IZ)” value with Pseudomonas aeruginosa was determined as 24 mm.

With `Cc1cccc(Oc2nc(-c3ccc(NC(=O)Nc4ccc(Br)cc4)cc3)nc3ccccc23)c1`, the “inhibition (INH)” value in test [1] worked out at 99%. Further, the minimal inhibitory concentration (MIC) in test [1] came to 25 µg/mL (≈ 47.6 µM); with Bacillus cereus (Bacillus cereus, MTCC 430), 12.5 µg/mL (≈ 23.8 µM); against Klebsiella pneumoniae (setting [2]), 50 µg/mL (≈ 95.2 µM); in the test with Candida albicans, 50 µg/mL (≈ 95.2 µM); with Escherichia coli (Escherichia coli, MTCC 739), 62.5 µg/mL (≈ 119 µM); in the test on Aspergillus niger it was 62.5 µg/mL (≈ 119 µM). For the same compound, the MIC against Staphylococcus aureus (Staphylococcus aureus, MTCC 96) turned out to be 12.5 µg/mL (≈ 23.8 µM); against Pseudomonas aeruginosa (setting [3]) it was 25 µg/mL (≈ 47.6 µM). The “inhibition zone (IZ)” value in the test with Bacillus cereus worked out at 28 mm; in the test on Klebsiella pneumoniae, 24 mm; in the test on Candida albicans, 24 mm; in the test on Escherichia coli, 27 mm; with Aspergillus niger, 22 mm; in the test on Staphylococcus aureus, 24 mm. Also, the “inhibition zone (IZ)” value in the test on Pseudomonas aeruginosa was 25 mm.

Take `Cc1ccc(NC(=O)Nc2ccc(-c3nc(Oc4cccc(C)c4)c4ccccc4n3)cc2)cc1`: the “inhibition (INH)” value in test [1] stood at 95%. Besides, the minimal inhibitory concentration (MIC) is 200 µg/mL (≈ 434 µM) in test [1]; 250 µg/mL (≈ 543 µM) in the test with Bacillus cereus (Bacillus cereus, MTCC 430); 50 µg/mL (≈ 109 µM) in the test on Klebsiella pneumoniae (setting [2]); 50 µg/mL (≈ 109 µM) against Candida albicans; 25 µg/mL (≈ 54.3 µM) against Escherichia coli (Escherichia coli, MTCC 739); 200 µg/mL (≈ 434 µM) against Aspergillus niger. The MIC turned out to be 100 µg/mL (≈ 217 µM) against Staphylococcus aureus (Staphylococcus aureus, MTCC 96) and 25 µg/mL (≈ 54.3 µM) against Pseudomonas aeruginosa (setting [3]). Besides, the “inhibition zone (IZ)” value in the test with Bacillus cereus was determined as 24 mm; in the test with Klebsiella pneumoniae, 24 mm; in the test with Candida albicans, 24 mm; with Escherichia coli it was 24 mm; in the test on Aspergillus niger, 21 mm; with Staphylococcus aureus, 23 mm. Further, in the test on Pseudomonas aeruginosa, the “inhibition zone (IZ)” value was 27 mm.

Take `CC[C@@H](CO)NCCN[C@@H](CC)CO` [ETHAMBUTOL]: in test [1], the “inhibition (INH)” value worked out at 99% and the minimal inhibitory concentration (MIC) was 3.12 µg/mL (≈ 15.3 µM).

Consider `CO[C@H]1/C=C/O[C@@]2(C)Oc3c(C)c(O)c4c(O)c(c(/C=N/N5CCN(C)CC5)c(O)c4c3C2=O)NC(=O)/C(C)=C\C=C\[C@H](C)[C@H](O)[C@@H](C)[C@@H](O)[C@@H](C)[C@H](OC(C)=O)[C@@H]1C` [RIFAMPIN], for which, in test [1], the “inhibition (INH)” value is listed as 99% and the MIC was determined as 0.25 µg/mL (≈ 0.304 µM).

With `Cc1ccc(NC(=S)Nc2ccc(-c3nc(Oc4cccc(C)c4)c4ccccc4n3)cc2)cc1`, the “inhibition (INH)” value in test [1] amounted to 94%. Also, the MIC in test [1] was determined as 100 µg/mL (≈ 210 µM); in the test with Bacillus cereus (Bacillus cereus, MTCC 430), 200 µg/mL (≈ 420 µM); with Klebsiella pneumoniae (setting [2]), 50 µg/mL (≈ 105 µM); against Candida albicans it was 50 µg/mL (≈ 105 µM); with Escherichia coli (Escherichia coli, MTCC 739), 50 µg/mL (≈ 105 µM); with Aspergillus niger, 200 µg/mL (≈ 420 µM). Besides, the minimum inhibitory concentration (MIC) in the test on Staphylococcus aureus (Staphylococcus aureus, MTCC 96) stood at 50 µg/mL (≈ 105 µM); with Pseudomonas aeruginosa (setting [3]) it was 50 µg/mL (≈ 105 µM). Also, the “inhibition zone (IZ)” value stood at 21 mm in the test on Bacillus cereus; 21 mm with Klebsiella pneumoniae; 23 mm with Candida albicans; 23 mm with Escherichia coli; 18 mm with Aspergillus niger; 22 mm in the test with Staphylococcus aureus. In the test with Pseudomonas aeruginosa, the “inhibition zone (IZ)” value amounted to 23 mm.

Take GENTAMICIN: the MIC against Bacillus cereus worked out at 6.25 µg/mL; in the test on Klebsiella pneumoniae, 25 µg/mL; in the test on Escherichia coli, 12.5 µg/mL; in the test on Staphylococcus aureus it was 6.25 µg/mL; in the test on Pseudomonas aeruginosa, 12.5 µg/mL. Moreover, the inhibition zone (IZ) in the test on Bacillus cereus and in the test with Klebsiella pneumoniae was 30 mm each time.

Turning to `NC(=O)c1cnccn1` [PYRAZINAMIDE], in test [1], the “inhibition (INH)” value is recorded as 99% and the MIC came to 6.25 µg/mL (≈ 50.8 µM).
